In one assay the target is T1, ERK-1 kinase (Homo sapiens, UniProt P27361).
T1 construct: purchased Invitrogen PV3311
Nature of the assay: Inhibition of ERK-1 kinase activity (LANCE Ultra TR-FRET). Particulars: ERK1 enzyme 0.4 nM, ATP 38.15 μM. It is filed as biochemical. The protocol: (§1) The object of this test example is to determine the inhibition effect of the compound on ERK-1 kinase activity. In vitro ERK-1 kinase analysis was carried out by using LANCE Ultra (Perkin Elmer) method. The reaction (reaction system 10 μL) was conducted by adding 2.5 μL of test compound/DMSO (final 4%, V/V, diluted to 10 concentrations (400 nM to 0.02 nM) using a 1:3 dilution scheme), 5 μL of a mixed solution of ERK1 enzyme (Invitrogen, # PV3311, final concentration: 0.4 nM) and substrate Ulight-MBP peptide (Perkin Elmer, # TRF0109-M, final concentration: 0.5 μM) formulated with a kinase buffer (50 mM Hepes pH 7.4, 10 mM MgCl2, 1 mM EGTA, 0.01% Triton X-100, 2 mM DTT) and 2.5 μL of ATP solution (Invitrogen, # PV3227, final concentration: 38.15 μM) formulated with the same buffer successively to a 384-well plate (Perkin Elmer OPTIPLATE™) and mixing well. The reaction mixture was incubated at room temperature for 60 minutes. The reaction was stopped by adding 1× LANCE Detection buffer (PerkinElmer # CR97-100) diluted with ultra-pure water, mM EDTA (Invitrogen #15575038) and 1 nM Eu-anti-p-MBP (PerkinElmer # TRF0201-M) antibody in 10 μL/well. The plate was incubated at room temperature for 60 minutes. Excitation reading was performed on Synergy H1 Hybird Reader, H1MFD (Biotek) with an excitation wavelength of 320 nm. TR-FRET rate was calculated by dividing the acceptor emission signal (signal value at 665 nM) by the Eu donor emission signal (signal value at 615 nM). The inhibition TR-FRET rate of the well treated by the compound was calculated relative to the Max signal (DMSO control) and Min signal (no enzyme added) control wells on the plate {% inhibition rate=100−[(test compound−Min average)]/(Max average−Min average)×100}. The 10 concentrations of the compound after 4-fold dilution of the reaction system were 100 nM to 0.005 nM. Abs_IC50 value was calculated by using GraphPad prism fits percentage inhibition rate and ten-point concentration data in a 4-parameter non-linear logic formula.

Another assay concerns the target T2, ERK-2 kinase (Homo sapiens, UniProt P28482).
T2 construct: purchased Invitrogen PV3313
Nature of the assay: Inhibition of ERK-2 kinase activity (LANCE Ultra TR-FRET). It is filed as biochemical. The note with it: ERK-2 enzyme 0.08 nM, ATP 38.15 μM. The protocol:
as §1, with “ERK-2” for “ERK-1”, “ERK-2” for “ERK1”, “PV3313,” for “PV3311,”, “0.08” for “0.4”, “EGTA” for “EGTA,”, “IX” for “1×”
(In TR-FRET formats the signal depends on donor and acceptor labels being close together.)

T1 sequence (P27361 whole entry): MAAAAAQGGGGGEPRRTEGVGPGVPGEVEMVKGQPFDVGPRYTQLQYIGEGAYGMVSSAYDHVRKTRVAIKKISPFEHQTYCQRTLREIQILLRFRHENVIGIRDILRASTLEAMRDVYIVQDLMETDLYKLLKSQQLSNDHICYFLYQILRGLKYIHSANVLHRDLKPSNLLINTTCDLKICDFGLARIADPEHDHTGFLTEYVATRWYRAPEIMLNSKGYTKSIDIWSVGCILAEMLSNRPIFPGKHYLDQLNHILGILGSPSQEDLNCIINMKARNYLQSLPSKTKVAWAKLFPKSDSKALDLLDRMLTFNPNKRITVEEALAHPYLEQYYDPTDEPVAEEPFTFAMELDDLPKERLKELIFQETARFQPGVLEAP
T2 sequence (P28482 whole entry): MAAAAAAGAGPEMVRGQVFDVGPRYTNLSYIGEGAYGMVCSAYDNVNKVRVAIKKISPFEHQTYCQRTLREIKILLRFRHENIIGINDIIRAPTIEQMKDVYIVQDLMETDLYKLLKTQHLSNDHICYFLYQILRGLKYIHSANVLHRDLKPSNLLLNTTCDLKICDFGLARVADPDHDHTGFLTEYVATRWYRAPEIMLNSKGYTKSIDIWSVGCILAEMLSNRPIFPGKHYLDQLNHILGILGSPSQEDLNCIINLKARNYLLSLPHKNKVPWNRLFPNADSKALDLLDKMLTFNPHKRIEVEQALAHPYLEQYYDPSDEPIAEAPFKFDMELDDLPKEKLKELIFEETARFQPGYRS

`COc1ccc(CNC(=O)c2nc3cc4c(-c5ccncc5)n[nH]c4cc3[nH]2)cc1OC` [Example 3, N-(3,4-dimethoxybenzyl)-3-(pyridin-4-yl)-1,7-dihydroimidazo[4,5-f]indazole-6-carboxamide]: the IC50 (usually the concentration that inhibits the measured activity by half) at ERK-1 kinase amounted to 5.48 nM; at ERK-2 kinase it was 3.95 nM.

On to `Cc1ccc([C@@H](C)NC(=O)c2nc3cc4c(-c5ccncc5)n[nH]c4cc3[nH]2)cc1` [Example 6, (R)-3-(pyridin-4-yl)-N-(1-(p-tolyl)ethyl)-1,7-dihydroimidazo[4,5-f]indazole-6-carboxamide], for which the IC50 is 2.09 nM on ERK-1 kinase and 0.84 nM on ERK-2 kinase.

Take `C[C@@H](NC(=O)c1nc2cc3c(-c4ccncc4)n[nH]c3cc2[nH]1)c1ccccn1` [Example 9, (R)—N-(1-(pyridin-2-yl)ethyl)-3-(pyridin-4-yl)-1,7-dihydroimidazo[4,5-f]indazole-6-carboxamide]: the results for the IC50 at ERK-1 kinase and on ERK-2 kinase were 8.6 nM and 3.13 nM, respectively.

With `CC(NC(=O)c1nc2cc3c(-c4ccncc4)n[nH]c3cc2[nH]1)c1ccccc1` (stereo not drawn) [Example 11, N-(1-phenylethyl)-3-(pyridin-4-yl)-1,7-dihydroimidazo[4,5-f]indazole-6-carboxamide], the IC50 on ERK-1 kinase turned out to be 0.64 nM; at ERK-2 kinase, 0.29 nM.

Regarding `COC[C@@H](NC(=O)c1nc2cc3c(-c4ccncc4)n[nH]c3cc2[nH]1)c1ccccc1` [Example 13, (S)—N-(2-methoxy-1-phenylethyl)-3-(pyridin-4-yl)-1,7-dihydroimidazo[4,5-f]indazole-6-carboxamide], the figures for the IC50 at ERK-1 kinase and at ERK-2 kinase were 3.01 nM and 1.39 nM, respectively.

As for `C[C@@H](NC(=O)c1nc2cc3c(-c4ccncc4)n[nH]c3cc2[nH]1)c1ccc([N+](=O)[O-])cc1` [Example 14, (R)—N-(1-(4-nitrophenyl)ethyl)-3-(pyridin-4-yl)-1,7-dihydroimidazo[4,5-f]indazole-6-carboxamide], the results for the IC50 at ERK-1 kinase and at ERK-2 kinase were 9.48 nM and 5.07 nM, respectively.

Take `C[C@@H](NC(=O)c1nc2cc3c(-c4ccncc4)n[nH]c3cc2[nH]1)c1ccc(Br)cc1` [Example 15, (R)—N-(1-(4-bromophenyl)ethyl)-3-(pyridin-4-yl)-1,7-dihydroimidazo[4,5-f]indazole-6-carboxamide]: the IC50 at ERK-1 kinase was 6.41 nM; at ERK-2 kinase, 2.72 nM.

Take `C[C@@H](NC(=O)c1nc2cc3c(-c4ccncc4)n[nH]c3cc2[nH]1)c1cccc(C(F)(F)F)c1` [Example 16, (R)-3-(pyridin-4-yl)-N-(1-(3-(trifluoromethyl)phenyl)ethyl)-1,7-dihydroimidazo[4,5-f]indazole-6-carboxamide]: the half-maximal inhibitory concentration (IC50) amounted to 1 nM on ERK-1 kinase and 0.73 nM at ERK-2 kinase.

As for `CC[C@@H](NC(=O)c1nc2cc3c(-c4ccncc4)n[nH]c3cc2[nH]1)c1ccccc1` [Example 17, (R)—N-(1-phenylpropyl)-3-(pyridin-4-yl)-1,7-dihydroimidazo[4,5-f]indazole-6-carboxamide], the figures for the IC50 on ERK-1 kinase and on ERK-2 kinase were 2.34 nM and 1.15 nM, respectively.

Turning to `O=C(N[C@H](CO)c1ccccc1)c1nc2cc3c(-c4ccncc4)n[nH]c3cc2[nH]1` [Example 20, (S)—N-(2-hydroxy-1-phenylethyl)-3-(pyridin-4-yl)-1,7-dihydroimidazo[4,5-f]indazole-6-carboxamide], the IC50 at ERK-1 kinase was determined as 0.22 nM; on ERK-2 kinase it was 0.06 nM.

On to `N#C[C@@H](NC(=O)c1nc2cc3c(-c4ccncc4)n[nH]c3cc2[nH]1)c1ccccc1` [Example 34, (S)—N-(cyano(phenyl)methyl)-3-(pyridin-4-yl)-1,7-dihydroimidazo[4,5-f]indazole-6-carboxamide], for which the IC50 on ERK-1 kinase turned out to be 0.79 nM; at ERK-2 kinase, 0.34 nM.

On to `C[C@@H](OC(=O)c1nc2cc3c(-c4ccncc4)n[nH]c3cc2[nH]1)c1ccccc1` [Example 35, (R)-1-phenylethyl 3-(pyridin-4-yl)-1,7-dihydroimidazo[4,5-f]indazole-6-carboxylate], for which the IC50 stood at 1.54 nM at ERK-1 kinase and 0.75 nM on ERK-2 kinase.

For the compound `C[C@@H](NC(=O)c1nc2cc3c(-c4ccnc(F)c4)n[nH]c3cc2[nH]1)c1ccccc1` [Example 37, (R)-3-(2-fluoropyridin-4-yl)-N-(1-phenylethyl)-1,7-dihydroimidazo[4,5-f]indazole-6-carboxamide], the figures for the IC50 on ERK-1 kinase and on ERK-2 kinase were 0.52 nM and 0.18 nM, respectively.

For the compound `Cc1cccc(C(C)NC(=O)c2nc3cc4c(-c5ccncc5)n[nH]c4cc3[nH]2)n1` (stereo not drawn) [Example 44, N-(1-(6-methylpyridin-2-yl)ethyl)-3-(pyridin-4-yl)-1,7-dihydroimidazo[4,5-f]indazole-6-carboxamide], the IC50 on ERK-1 kinase was found to be 0.95 nM; on ERK-2 kinase it was 0.66 nM.

On to `C[C@@H](NC(=O)c1nc2cc3c(-c4ccncc4)n[nH]c3c(Cl)c2[nH]1)c1ccccc1` [Example 46, (R)-8-chloro-N-(1-phenylethyl)-3-(pyridin-4-yl)-1,7-dihydroimidazo[4,5-f]indazole-6-carboxamide], for which the results for the IC50 on ERK-1 kinase and at ERK-2 kinase were 3.3 nM and 1.7 nM, respectively.

With `Cc1cccc([C@@H](C)NC(=O)c2nc3cc4c(-c5ccncc5)n[nH]c4cc3[nH]2)n1` [Example 47, (R)—N-(1-(6-methylpyridin-2-yl)ethyl)-3-(pyridin-4-yl)-1,7-dihydroimidazo[4,5-f]indazole-6-carboxamide], the IC50 at ERK-1 kinase stood at 0.49 nM; on ERK-2 kinase it was 0.17 nM.

As for `CC(NC(=O)c1nc2cc3c(-c4ccncc4)n[nH]c3cc2[nH]1)c1cnccn1` (stereo not drawn) [Example 51, N-(1-(pyrazin-2-yl)ethyl)-3-(pyridin-4-yl)-1,7-dihydroimidazo[4,5-f]indazole-6-carboxamide], the IC50 on ERK-1 kinase was determined as 2.42 nM; on ERK-2 kinase, 0.91 nM.

Take `C[C@@H](NC(=O)c1nc2cc3c(-c4ccncn4)n[nH]c3cc2[nH]1)c1ccccc1` [Example 57, (R)—N-(1-phenylethyl)-3-(pyrimidin-4-yl)-1,7-dihydroimidazo[4,5-f]indazole-6-carboxamide]: the figures for the IC50 on ERK-1 kinase and at ERK-2 kinase were 3.51 nM and 1.43 nM, respectively.

Consider `C[C@@H](NC(=O)c1nc2cc3c(-c4ccncc4)n[nH]c3cc2[nH]1)c1ccc(F)c(Cl)c1` [Example 63, (R)—N-(1-(3-chloro-4-fluorophenyl)ethyl)-3-(pyridin-4-yl)-1,7-dihydroimidazo[4,5-f]indazole-6-carboxamide], for which the IC50 at ERK-1 kinase was 2.93 nM; on ERK-2 kinase it was 2.88 nM.

Consider `O=C(c1nc2cc3c(-c4ccncc4)n[nH]c3cc2[nH]1)N1C[C@@H]1c1ccccc1` [Example 65, (S)-(2-Phenylaziridin-1-yl)(3-(pyridin-4-yl)-1,7-dihydroimidazo[4,5-f]indazol-6-yl)methanone], for which the IC50 at ERK-1 kinase was 3.73 nM; at ERK-2 kinase, 1.58 nM.

As to `C[C@@H](CNC(=O)c1nc2cc3c(-c4ccncc4)n[nH]c3cc2[nH]1)c1ccccc1` [Example 66, (R)—N-(2-phenylpropyl)-3-(pyridin-4-yl)-1,7-dihydroimidazo[4,5-f]indazole-6-carboxamide], the IC50 at ERK-1 kinase came out at 1.52 nM; at ERK-2 kinase it was 0.83 nM.

These data come from patent US20200247815A1, “PYRAZOLYL-CONTAINING TRICYCLIC DERIVATIVE, PREPARATION METHOD THEREFOR AND USE THEREOF” (Jiangsu Hansoh Pharmaceutical Group Co., Ltd., priority 2017, published 2020).
